Assay results: patent publication US20250154212A1, “METHOD OF DISRUPTING MEMORY AND LIPOPEPTIDE FOR USE IN SUCH METHOD” (The Research Foundation for The State University of New York, priority 2023, published 2025)

Tested on: contextual fear/threat memory
Experiment: Contextual fear/threat conditioning, infusion into dorsal hippocampus, wild-type mice
Assay type: in vivo, mouse
Settings: 10 nmol in 0.5 μl per hemisphere in hippocampus, tested 24 h post-infusion
Method: Mice were 8-10 weeks old at the time of cannulation and 9-11 weeks at the beginning of behavioral experiments. Mice were housed with cage-mates in plastic cages and provided with food and water ad libitum. Mice were maintained on a 12 h light/dark cycle (lights on at 7:00 am) and behavioral experiments began at 9:00 am.
Mice were injected intraperitoneally (1 ml/100 g body weight) with an anesthetic cocktail containing ketamine (10 mg/ml) and xylazine (2 mg/ml). Mice were provided with analgesic treatment prior to surgery (carprofen; 5 mg/ml). Guide cannulae (Plastics One, Roanoke, VA) were implanted bilaterally in the dorsal hippocampus (from bregma: AP-2.1 mm; L+/−1.8 mm; DV-1.2 mm) and secured to the skull with three jeweler's screws and dental cement. Antisedan (0.66 ml/100 g body weight of 0.5 mg drug/ml solution) was given via i.p. injection after surgery to reverse the anesthesia.
For 7 days following surgery, mice were handled by freely exploring the experimenter's palm for 2-5 min. Mice were trained and tested in the same conditioning box (Coulbourn Habitest, Coulboum Instruments), which consisted of a grid floor and blank walls. […] Freezing behavior (cessation of all movement except breathing) during the 4 min session was recorded by an experimenter blind to the conditions. […]

## O=S(=O)(O)c1cc(O)c2c(S(=O)(=O)O)cc(S(=O)(=O)O)cc2c1 [ζ-stat, 1-naphthol-3,6,8-trisulphonic acid]
  contextual fear/threat memory (% time freezing): has no effect
